assay: in vitro; conditions: human, hela cells, % viability

Row | Compound | viability at 28.5 h, 10 µM
1 | CC(=O)NC(c1ccccn1)C1CCCN(C(=O)C2CC2)C1 (stereo not shown) [CBK285040] | 100%
2 | CC(C)(N)CNC(=O)c1cnc2cc(Cl)ccc2c1O [CBK107360] | 101%
3 | O=C(O)c1cc(-c2cccnc2)nc2ccc(Br)cc12 [CBK263674] | 105%
4 | Oc1cc(Cc2ccccc2)cnc1CN1CCOCC1 [CBK288173] | 94%
5 | CCCc1nn(CC(=O)NC(C)C)c(=O)c2cc3ccsc3n12 [CBK284147] | 87.5%
6 | COc1ccc(C(C)C)cc1-c1cncc(NCC(C)(C)CO)n1 [CBK065206] | 106%
7 | O=C(CSc1ccc(Cl)cc1)Nc1cccc2nsnc12 [CBK267936] | 90.8%
8 | CN(CC(=O)Nc1sc2c(c1C#N)CCCCC2)Cc1cnn(C)c1 [CBK304621] | 94.3%
9 | Cc1csc2ncc(C(=O)Nc3ccccc3C(F)(F)F)c(=O)n12 [CBK287456] | 86.4%
10 | CC(C)C(=O)Nc1cc2cccnc2c(-c2ccc3c(c2)CCO3)n1 [CBK081260] | 114%
11 | c1nc(NCCN2CCOCC2)c2c3c(sc2n1)CCCCC3 [CBK268418] | 103%
12 | CN1CCN(CCCOc2ccc(OCc3ccccc3)cc2)CC1 [CBK265077] | 98.2%
13 | CC(C)C(=O)N1CCCC(n2nc(-c3cccs3)ccc2=O)C1 (stereo not shown) [CBK284038] | 92.3%
14 | CC(C)Nc1nccnc1OCc1ccc(F)cc1 [CBK115644] | 113%
15 | COc1cc(/C=N/NC(=O)CCn2c3ccccc3c3ccccc32)ccc1O [CBK262332] | 73%
16 | CCCCC(c1cccnc1)N(C)C(=O)c1ccnc(-n2cnnc2)c1 (stereo not shown) [CBK306786] | 84.2%
17 | COc1ccc2[nH]c3c(c2c1)CCNC31CCN(Cc2cc(F)cc(F)c2)C1 (stereo not shown) [CBK039368] | 81.9%
18 | O=C(Nc1c(Cl)cccc1Cl)c1ccc(-c2ccccc2)cc1 [CBK262300] | 94.5%
19 | O=C(Nc1cccc([N+](=O)[O-])c1)c1cc(S(=O)(=O)N2CCCCC2)ccc1Cl [CBK261367] | 93.9%
20 | Cc1ccc(-c2nnc(-c3cccc(NC(=O)CSCc4ccc(Cl)cc4)c3)o2)cc1 [CBK266789] | 92.3%
21 | CCc1nc2ccc(C(=O)NCc3cccs3)cn2c1N(C)CC [CBK145492] | 108%

Row | Compound | viability at 28.5 h, 10 µM
22 | CCOc1ccc(N2C(=O)CC(N3CCN(CCc4ccccn4)CC3)C2=O)cc1 (stereo not shown) [CBK270149] | 95.8%
23 | c1ccc(CCNc2cc(-c3ccsc3)ncn2)nc1 [CBK036963] | 93.9%
24 | O=C(O)c1ccc(C(=O)Nc2cccc(NC(=O)C3CCCO3)c2)cc1 (stereo not shown) [CBK268613] | 105%
25 | CC(=O)Nc1ccc(CN2CCCC(c3cc4ncccc4[nH]3)C2)cc1 (stereo not shown) [CBK283402] | 92.4%
26 | Brc1ccccc1-c1nnc2n1CCCCC2 [CBK200092] | 90.9%
27 | Cc1cccc(C)c1OCC(=O)Nc1cccc(Oc2ccc3c(c2)C(=O)N(c2ccccc2)C3=O)c1 [CBK265499] | 100%
28 | COc1cccc(C2C(C(=O)c3ccc(Br)cc3)=C(O)C(=O)N2CCCN2CCOCC2)c1 (stereo not shown) [CBK264862] | 103%
29 | COc1cc2c(cc1CNC1CCCc3c1cnn3C)OC(C)C2 (stereo not shown) [CBK304296C] | 94.6%
30 | CCCCN1CCN(S(=O)(=O)c2ccc(Br)cc2)CC1 [CBK144055] | 99.1%
31 | Nc1cc2cccnc2c(-c2cccc(C(F)(F)F)c2)n1 [CBK081177] | 106%
32 | O=C(c1ccccc1)N1C[C@@H](c2ccsc2)[C@@H]2CN(Cc3ccccc3)CC[C@@H]21 [CBK285602] | 104%
33 | CC(C)C12CN3CC(C(C)C)(CN(C1)C3c1ccc3c(c1)OCO3)C2=O (stereo not shown) [CBK265981] | 100%
34 | Cc1nn(C)c(C)c1CCc1nc(CN2CCN(C)CC2)no1 [CBK306510] | 110%
35 | O=C(c1cc[nH]n1)N1CCC(c2cc3ccccc3cn2)CC1 [CBK284892] | 91.7%
36 | CCOc1ccc2nc(NS(=O)(=O)c3cc(C(=O)O)c(Cl)cc3Cl)sc2c1 [CBK299789] | 109%
37 | O=C(O)c1nc(/N=C/c2ccc(C#Cc3ccccc3)cc2)n[nH]1 [CBK261219] | 90.3%
38 | COc1ccc(NC(=O)N[C@@H]2CC[C@@]3(c4ccc(OC)c(OC)c4)CCN(C)[C@H]3C2)c(C)c1 [CBK036460T] | 97.2%
39 | Cc1cc(NC(=O)C2COc3ccccc3O2)c2ccccc2n1 (stereo not shown) [CBK115871] | 91.6%
40 | Nn1c(Cn2nnc3ccccc32)n[nH]c1=S [CBK268233] | 111%
41 | CCCC(=O)N1CCC(c2nc(Cc3cccs3)no2)C1 (stereo not shown) [CBK283034] | 88%
42 | NC(=O)C1CCN(c2ccc(-c3noc([C@@H]4CCCN4Cc4cccnc4)n3)cn2)CC1 [CBK288882] | 108%

Row | Compound | viability at 28.5 h, 10 µM
43 | O=C1NCCCC12CCN(Cc1cnc(N3CCOCC3)nc1)CC2 [CBK285528] | 111%
44 | Nc1nc2ccc(-c3nc4ccccc4o3)cc2s1 [CBK287846] | 57.4%
45 | O=C(Nc1ccccc1)c1cccc(S(=O)(=O)NCc2cccs2)c1 [CBK058153] | 87.1%
46 | Cn1c(-c2nonc2N)nc2ccccc21 [CBK062642] | 94.5%
47 | CN(C(=O)CN1CCN(c2cc(-c3cccc([N+](=O)[O-])c3)ncn2)CC1)c1ccccc1 [CBK091137] | 103%
48 | COc1ccccc1CN(C1CCNCC1)S(=O)(=O)c1c(Cl)cccc1Cl [CBK160807T] | 89.2%
49 | O=C(c1cccc(F)c1)N1C2CCC1CC(O)(c1cccnc1F)C2 (stereo not shown) [CBK284422] | 104%
50 | COc1ccc(C(=O)O)cc1S(=O)(=O)Nc1c(-c2cccs2)nc2cc(C)ccn12 [CBK297484] | 82.9%
51 | OCC[C@H]1CN2CCCC2CN1Cc1cccn1-c1ccccc1F (stereo partly shown) [CBK282977] | 93%
52 | NC(=O)CCN1CCc2ccccc2C1 [CBK138325] | 88.3%
53 | CCn1nnc2c(=O)n(CC(=O)Nc3ccccc3)cnc21 [CBK287828] | 85.5%
54 | CNC(=O)c1cnn2c(C)c(Cc3cccnc3)c(C)nc12 [CBK162165] | 78.2%
55 | c1ccc(Oc2ccc(Nc3cccc(-c4ccc(N5CCOCC5)cc4)n3)cc2)cc1 [CBK036986] | 95.4%
56 | CC(=O)N1CCN(C(=O)C(C)S(=O)(=O)c2ccccc2F)CC1 (stereo not shown) [CBK305603] | 97.7%
57 | CCOc1cc(Cl)c(S(=O)(=O)NCCCN2CCOCC2)cc1Cl [CBK268781] | 87.9%
58 | CSc1nn(C)c(=S)c2c3c(oc12)CCC3 [CBK019474] | 92.3%
59 | CCn1c(=O)[nH]c2cc(C(=O)NCCc3ccccc3)ccc2c1=O [CBK265773] | 95.2%
60 | COc1ccc(Nc2ccc(-c3ccc4ccccc4c3)cn2)cn1 [CBK037744] | 88.6%
61 | Cc1cc(/C=C(/C#N)c2cccc(F)c2)c(C)n1-c1ccc(S(N)(=O)=O)cc1 [CBK268268] | 99.9%
62 | COc1ccc(N(CC(=O)N2CCN(C)CC2)S(=O)(=O)c2ccc(C)c([N+](=O)[O-])c2)cc1 [CBK264051] | 89.8%
63 | Cc1ccc(Cn2nc(C)c(C(=O)OCc3cc(=O)n4ccccc4n3)c2Cl)cc1 [CBK297550] | 85.8%

same assay, conditions: human, hela cells, % viability, bulk resorufin, single well

Row | Compound | viability at 28.5 h, 10 µM
64 | COC(=O)c1cccc(NC(=O)N2CCC3(CC2)OCCO3)c1 [CBK043713] | 91.1%

Reference: publication PMC12040169 (PLOS Biology, 2025)
